“Also recorded” adds a separate entry of the source.
Assays:
[1] = tested on: mouse embryonic day 16 forebrain (MEF) cells; experiment: normalized renilla luciferase activity (cell survival / relative cytotoxicity); format: cell-based; conditions: three days, FIG. 1D
Method: Luciferase assays were performed using a noncommercial dual luciferase enzyme assay system (Dyer et al., 2000, Anal Biochem). In this system, a co-transfection with pDCX-Luci and a control vector driving Renilla-luciferase under the CMV promoter was performed. The two different luciferases have different specific substrates and, therefore, the DCX regulatory region driven firefly luciferase activity can be distinguished from CMV driven Renilla-luciferase. For analysis, the firefly luciferase activity was normalized against the CMV driven Renilla-luciferase. […]
Elmer, Calif., USA) according to the manufacturer's instructions. Then, 100 μl of freshly prepared Renilla assay solution consisting of 1.1 M NaCl (VWR, Vienna, Austria), 2.2 mM Na2EDTA, 0.22 M KH2PO4 pH 5.1 (Merck, Darmstadt, Germany), 0.44 mg/mL BSA (Biomol, Hamburg, Germany), 1.3 mM NaN3 (Sigma-Aldrich, Taufkirchen, Germany), […] coelenterazine (p.j.k., Kleinblittersdorf, Germany) per well were added and measurements were performed using the Victor™ X Multilable Plate Reader as described above. Data were normalized the following way: i) firefly (FF) luciferase activity is related to the renilla (R) luciferase activity; and ii) the FF/R values of the individual samples are related to the FF/R value obtained by stimulation with the control medium and expressed as x-fold change compared to control. […]

Neuro-2a cells = experiment: neurite length in Neuro2a cells (GAP-43 staining); format: cell-based, mouse; conditions: 10 μM, 2 days, compared to control and RA/VPA
Method: For more precise analysis of neurite length Neuro2a cells were selected and stimulated for 2 days with RA/VPA as positive control and ENDFs in MEM+10% FCS. Immunocytochemical analysis was performed using GAP43 antibody which is known as a strong neuronal plasticity marker.
Neuro2a cells were grown in MEM with Earle's Salts (PAA, Pasching, Austria) containing 2 mM L-glutamine, 100 μg/ml Penicillin/Streptomycin (PAN Biotech GmbH, Aidenbach, Germany), 100 mM sodium pyruvate (Sigma-Aldrich, Taufkirchen, Germany) and 10% FCS (Lonza, Wuppertal, Germany).
The cells were passaged with 6 ml trypsin 0.5 mg/ml+EDTA 0.22 mg/ml (PAA, Pasching, Austria) two times per week. For analysis of neurite length Neuro2a cells were seeded on coverslips in a 24 well plate coated with Poly-L-ornithine and Laminin in a differentiation media MEM with Earle's Salts (PAA, Pasching, Austria) containing 2 mM L-glutamine, 100 μg/ml Penicillin/Streptomycin (PAN Biotech GmbH, Aidenbach, Germany), 100 mM sodium pyruvate (Sigma-Aldrich, Taufkirchen, Germany) and 1% FCS (Lonza, Wuppertal, Germany) and treated for 2 days with retinoic acid plus valproic acid and compound 1a (ENDF1) 10 μM, compound 1b (ENDF3) 10 μM, compound 3a (ENDF2) 10 μM, or ENDF4 10 μM. Cells were fixed as described in Example 18. Immunostaining was performed using GAP-43 1:500 (AbD Serotec, Oxford, UK).

PC12 cells = experiment: PC12 cobalt-chloride stress test, Caspase 3/7 activation; format: cell-based, rat; conditions: CoCl2 300 μM, 24 hours; compounds 10 μM, NGF 50 ng/ml; FIG. 7A
Method: For the neuroprotection assay PC12 cells were stressed with cobalt chloride 300 μM for 24 hours and the activity of Caspase 3/7 and LDH release were measured. NGF 50 ng/ml was used as a positive control for Caspase 3/7 activity and NGF 100 ng/ml was used as a positive control for LDH release.
For the PC12-CoCl2-Assay PC12 cells were used (ATCC: CRL-1721 ™). These cells were growing in RPMI supplemented with 10% Horse Serum (heat inactivated) (Sigma Aldrich, Taufkirchen, Germany), 5% Fetal Bovine Serum (Lonza, Wuppertal, Germany), 2.5% Penicillin/Streptomycin and Glutamine (PAA, Pasching, Austria) as adherent cultures when the plates are coated with Poly-L-ornithine ([…] in water) for at least one hour at 37° C. For passaging PC12-cells were resuspended with Accutase (PAA, Pasching, Austria) for 10 minutes at 37° C. once a week.
For all experiments cells were plated (quadruplicates) on Poly-L-ornithine-coated 96-well plates at a density of 10^4 cells per well. For Caspase 3/7-measurement cells were seeded in a white 96-well-plate to detect luminescence. As positive-control for neuroprotection Nerve Growth Factor (NGF) (50 ng/ml and 100 ng/ml) was used. To induce hypoxia CoCl2 (300 μM) was added to the cells after 20-24 hours. The control-treatment was compound 1a (ENDF1), compound 1b (ENDF3), compound 3a (ENDF2), ENDF4 or Osajin in the concentrations 1 μM and 10 μM in proliferation-media without CoCl2.
For Caspase 3/7-activation Caspase 3/7 substrate was added to the cells in an equal amount 22 hours after stimulation. Plates are incubated for 2 hours at room temperature in the dark, luminescence was measured 24 hours after stimulation and the blank-values are subtracted.

| Structure (SMILES) | normalized renilla activity (approximate measure of cell survival / relative cytotoxicity) [1] | neurite length and branching (Neuro-2a cells) | protection from CoCl2 induced Caspase 3/7 activity (PC12 cells) |
| --- | --- | --- | --- |
| COc1cc2c(c(O)c1C(=O)/C=C/c1ccc(O)cc1)C=CC(C)(C)O2 [Compound 1a, (E)-1-(5-hydroxy-7-methoxy-2,2-dimethyl-2H-chromen-6-yl)-3-(4-hydroxyphenyl)prop-2-en-1-one] | significantly higher than that exerted by the reference compounds xanthohumol and osajin | longer growth of neurites as well as more elaborated branches; also recorded: strong and significant increase on neurite length and more elaborated branches | partially protected; also recorded: significant neuroprotective effect similar to NGF |
| COc1cc2c(c(O)c1C(=O)/C=C/c1ccc(O)cc1)CCC(C)(C)O2 [Compound 1b, (E)-1-(5-hydroxy-7-methoxy-2,2-dimethylchroman-6-yl)-3-(4-hydroxyphenyl)prop-2-en-1-one] | significantly higher than that exerted by the reference compounds xanthohumol and osajin | longer growth of neurites as well as more elaborated branches; also recorded: strong and significant increase on neurite length and more elaborated branches | partially protected; also recorded: significant neuroprotective effect similar to NGF |

— patent US9956199B2, “Chromane-like cyclic prenylflavonoids for the medical intervention in neurological disorders” (priority 2011, dated 2018)
